In patent publication US20230192700A1, “PYRAZOLOPYRAZINES ACTING ON CANCERS VIA INHIBITION OF CDK12” (Bayer Aktiengesellschaft, priority 2020, published 2023):

System: BRCA1 mRNA expression in CAL-120 cells
Experiment: qRT-PCR assay: inhibition of BRCA1 mRNA expression in CAL-120 cells
Type: cell-based
Settings: Homo sapiens, median, read-out: RTqPCR-CAL-120 IC50 [mol/l] BRCA1 (median)
Description: 3. qRT-PCR Assay: BRCA1, ATR, MCL1 in MDA-MB-231, CAL-120
Tissue cultured human MDA-MB-231 human breast cancer cells were plated in 500 microL per well at 200,000 cells/well in a 24 well microtiter plate. After 24 h, the cells were exposed continuously for 24 h to test substances (substances were added with Tecan HP D300 Dispenser). RNA was prepared using Qiagen RNeasy MiniKit (#74106), RNA was quantified using a NanoDrop Equipment, and 600 nano gamms of RNA was coverted to cDNA using a SuperScript VILO kit (Thermofisher #11755050) followed by qPCR amplification. BRCA1 and ATR gene expression was measured by RT-qPCR and normalised to GAPDH housekeeping gene expression. qPCR primer sets have been purchased from Thermo Fisher Scientific/Applied Biosystems: BRCA1, # Hs 01556193; ATR, #Hs 00992123; GAPDH, #Hs 03929097.

IC50: 64.3 nM
SMILES: c1ccc2[nH]c(CNc3nn(C4CCOCC4)c4nc(C5CC5)cnc34)nc2c1 [Example 16, N-[(1H-benzimidazol-2-yl)methyl]-6-cyclopropyl-1-(oxan-4-yl)-1H-pyrazolo[3,4-b]pyrazin-3-amine]
